Laboratory results: PubChem BioAssay (NCI)
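GI50 = concentration required for 50% inhibition of growth. TGI denotes the concentration required for complete inhibition of growth.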

Key:
Test in all cases: NCI-60 cell line screen, 384-well format
MALME-3M melanoma = test system: MALME-3M melanoma
MDA-MB-468 breast = test system: MDA-MB-468 breast
HT29 colon = test system: HT29 colon
COLO 205 colon = test system: COLO 205 colon
OVCAR-8 ovarian = test system: OVCAR-8 ovarian
NCI-H522 lung = test system: NCI-H522 lung
UACC-62 melanoma = test system: UACC-62 melanoma
SR leukemia = test system: SR leukemia
OVCAR-3 ovarian = test system: OVCAR-3 ovarian
SK-OV-3 ovarian = test system: SK-OV-3 ovarian
786-0 renal = test system: 786-0 renal
A498 renal = test system: A498 renal
HOP-92 NSCLC = test system: HOP-92 NSCLC

Compound `C=CC(=O)N1CCC(CNc2ncnc(N)c2-c2ccc(Oc3ccccc3)cc2)CC1` has a GI50 (MALME-3M melanoma) of 30.5 µM, a TGI (MALME-3M melanoma) greater than 73.5 µM and a GI50 (MDA-MB-468 breast) of 10.6 µM. It also gave a TGI (MDA-MB-468 breast) of 23.2 µM, a GI50 (HT29 colon) of 25 µM and a TGI (HT29 colon) of 63.1 µM. For the same compound, the GI50 (COLO 205 colon) was 22.5 µM, the TGI (COLO 205 colon) was 49.9 µM and the GI50 (OVCAR-8 ovarian) was 21.2 µM. The TGI (OVCAR-8 ovarian) was greater than 62.2 µM, the GI50 (NCI-H522 lung) was 4.12 µM and the TGI (NCI-H522 lung) was 15.7 µM. It also gave a GI50 (UACC-62 melanoma) of 16.6 µM, a TGI (UACC-62 melanoma) of 33.5 µM and a GI50 (SR leukemia) of 8.25 µM. It also gave a TGI (SR leukemia) of 21.3 µM, a GI50 (OVCAR-3 ovarian) of 16.1 µM and a TGI (OVCAR-3 ovarian) of 30.5 µM. The GI50 (SK-OV-3 ovarian) was 16.2 µM, the TGI (SK-OV-3 ovarian) was 44.9 µM and the GI50 (786-0 renal) was 18.7 µM. The TGI (786-0 renal) was 42.9 µM, the GI50 (A498 renal) was 17.2 µM and the TGI (A498 renal) was 37 µM. The GI50 (HOP-92 NSCLC) was 15.2 µM and the TGI (HOP-92 NSCLC) was 39.1 µM.
